The text below walks through data of patent US12384786B2 (MINGHUI PHARMACEUTICAL (SHANGHAI) LIMITED, priority 2019, dated 2025).

pIC50: −log10 of the molar value. “Also recorded” adds a separate entry of the source.

In general, IC50 refers to the concentration that inhibits the measured activity by half. The term pIC50 denotes the IC50 on a negative log10 scale, so that one unit is a factor of ten.

Series [1] has as its system TMD8 cells (Human diffuse large B lymphoma cells). The series can be described thus: CellTiter-Glo TMD8 inhibitory activity. In kind it is cell-based. The note with it: cultured in vitro. An excerpt: CellTiter-Glo kit was used to test the TMD8 inhibitory activity of compounds of examples on Human diffuse large B lymphoma cells cultured in vitro. IC50 values were shown below.

Series [2] has as its system subcutaneous xenograft TMD8 tumor. The series can be described thus: Subcutaneous transplantation tumor model of TMD8 cells in NOD/SCID mice. The format is in vivo. The settings on record: for inhibitory effect on growth of subcutaneous transplanted TMD8 tumor / anti-tumor effect: orally 30 mg/kg once a day or 10→5 mg/kg twice a day; for tumor growth inhibition rate (TGI): after 22 days of administration. As for the experimental part:
In the subcutaneous transplantation tumor model of human diffuse large B lymphoma TMD8 cells in NOD/SCID mice, the inhibitory effect of example 1 on tumor growth was tested. Tumor growth and animal body weight were presented in FIG. 1 and FIG. 2 as followed. […] Therefore, the dose was adjusted to 5 mg/kg and continued to administrate for 14 days.

The target in series [3] is Full-length human BTK (Homo sapiens (Human), UniProt Q06187). The series can be described thus: BTK inhibitory activity, Reaction Biology Corporation kinase assay.
The target of series [4] is Full-length human BTK (C481S) (Homo sapiens (Human), UniProt Q06187, C481S). The series can be described thus: BTK (C481S) inhibitory activity, Reaction Biology Corporation kinase assay. The settings on record: read-out: IC50(nM) BTK(C481S); (b) ATP concentration 100 μM.
Series [5] addresses Full-length human BTK. The series can be described thus: BTK inhibitory activity, Reaction Biology Corporation kinase assay. The note with it: read-out: IC50 of standard; standard in BTK/BTK (C481S) assay, ATP 10 μM.

Sequence of Full-length human BTK (Homo sapiens (Human), UniProt Q06187) (Q06187 whole entry): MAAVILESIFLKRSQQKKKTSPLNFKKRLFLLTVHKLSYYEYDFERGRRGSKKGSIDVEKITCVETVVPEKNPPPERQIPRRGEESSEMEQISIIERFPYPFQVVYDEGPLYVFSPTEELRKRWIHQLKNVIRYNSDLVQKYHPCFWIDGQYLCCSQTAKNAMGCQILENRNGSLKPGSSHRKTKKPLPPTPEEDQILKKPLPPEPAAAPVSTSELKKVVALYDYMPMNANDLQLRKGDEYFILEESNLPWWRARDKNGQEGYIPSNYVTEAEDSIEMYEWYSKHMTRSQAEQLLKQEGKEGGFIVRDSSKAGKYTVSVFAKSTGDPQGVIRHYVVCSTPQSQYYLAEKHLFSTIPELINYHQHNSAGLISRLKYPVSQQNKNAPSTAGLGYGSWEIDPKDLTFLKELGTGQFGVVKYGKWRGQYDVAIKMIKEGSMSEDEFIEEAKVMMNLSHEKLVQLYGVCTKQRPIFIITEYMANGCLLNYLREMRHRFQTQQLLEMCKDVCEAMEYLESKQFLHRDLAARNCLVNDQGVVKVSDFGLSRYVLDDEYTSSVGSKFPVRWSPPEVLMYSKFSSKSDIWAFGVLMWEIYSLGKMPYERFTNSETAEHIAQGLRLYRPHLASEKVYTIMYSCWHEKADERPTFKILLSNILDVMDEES
Sequence of Full-length human BTK (C481S) (Q06187 whole entry C481S): as the sequence (Q06187 whole entry) above, with C481S counted along it

On to `Nc1ncnc2c1c(-c1ccc(Oc3ccccc3)cc1)nn2[C@@H]1CCC[C@@H](O)C1` [Example 1, (1R,3R)-3-(4-amino-3-(4-phenoxyphenyl)-1h-pyrazole[3,4-d]pyrimidin-1-yl)cyclohex-1-ol], for which the IC50 is 20 nM in series [1]; 8.1 nM on Full-length human BTK [3] (read-out: IC50(nM) BTK, (b) ATP concentration 100 μM); 3.4 nM in series [4]. The animal body weight result in series [2] (10 mg/kg orally twice a day for 8 successive days) was “decreased slightly”. The “effect on animal body weight” value in series [2] (30 mg/kg orally once a day) is “no significant effect”. Further, in series [2] (during administration, treatment groups overall), the “influence on the body weight of animals” value is on record as “without showing obvious influence”. Besides, the “inhibitory effect on growth of subcutaneous transplanted TMD8 tumor / anti-tumor effect” value in series [2] is given as “obvious inhibitory effect”; in series [2] (listed as example 1), “significant anti-tumor effect; also recorded: significantly inhibited the growth of tumor”. Besides, the results for the “tumor growth inhibition rate (TGI)” value in series [2] (orally once a day at 30 mg/kg) and in series [2] (orally twice a day at 10→5 mg/kg) were 49.6% and 52.7%, respectively. The inhibition at 0.005 µM at Full-length human BTK [3] (read-out: BTK inhibitory rate(%)) amounted to 60%.

As for `CN[C@@H]1C[C@H]2O[C@@](C)([C@@H]1OC)n1c3ccccc3c3c4c(c5c6ccccc6n2c5c31)C(=O)NC4` [Starsporin, reference compound], the negative-log IC50 (pIC50) on Full-length human BTK [5] was 8.40.
